ChEMBL document CHEMBL1157944, “Phytotoxic withanolides from Jaborosa rotacea” (J Nat Prod, 2006)
The source made the active and inactive calls. No cut-off for these calls is given here.

What was measured:
Type in all cases: functional, organism-based
Phalaris canariensis [1] = test: Stimulation of radicle growth in Phalaris canariensis at 50 ug/ml
Phalaris canariensis [2] = test: Phytotoxicity against Phalaris canariensis assessed as inhibition of radicle growth at 50 ug/ml
Lactuca sativa [3] = test: Phytotoxicity against Lactuca sativa assessed as inhibition of emergence rate index at 50 ug/ml
Lactuca sativa [4] = test: Phytotoxicity against Lactuca sativa assessed as inhibition of radicle growth at 50 ug/ml
Lactuca sativa [5] = test: Phytotoxicity against Lactuca sativa assessed as inhibition of germination at 50 ug/ml

CC1=C(C)C(=O)O[C@]2(C1)O[C@@]1(O)C[C@H]3[C@@H](C[C@@H](O)C4=CC=CC(=O)[C@@]43C)[C@@H]3CC[C@@](O)([C@@H]2C)[C@]31C
Activity (Phalaris canariensis [1]): Active

CC1=C(C)C(=O)O[C@]2(C1)O[C@@]1(O)C[C@H]3[C@@H](C[C@@H](O)[C@@]4(Cl)CC=CC(=O)[C@]34C)[C@@H]3CC[C@@](O)([C@@H]2C)[C@]31C
Activity (Phalaris canariensis [2]): Active

CC1=C(C)C(=O)O[C@]2(C1)O[C@@]1(O)C[C@H]3[C@@H](C[C@H](Cl)[C@]4(O)CC=CC(=O)[C@]34C)[C@@H]3CC[C@@](O)([C@@H]2C)[C@]31C
Activity (Lactuca sativa [3]): Active
Activity (Lactuca sativa [4]): Active
Activity (Lactuca sativa [5]): Active

CC1=C(C)[C@H]2C(=O)[C@@H](C)[C@]3(O)CC[C@H]4[C@@H]5C[C@@H](O)[C@@]6(O)CC=CC(=O)[C@]6(C)[C@H]5C[C@@]2(OC1=O)[C@@]43C
Activity (Phalaris canariensis [1]): Active
